This is an account of results in US10809268B2, “Methods and kits for measuring and quantifying DNA double-stranded breaks using gamma-H2AX and H2AX” (The United States of America, as represented by the …, priority 2015, dated 2020).

A value given as a limit tells only on which side of the number the result lay.

The subject of one experiment is A375 xenografts. Put plainly: γ-H2AX and total H2AX immunoassays on cells from drug-treated A375 xenograft mouse models. Particulars: A375 xenografts in vivo; PARPi given simultaneously or four hours before CPT-11.
The next experiment relates to HT29 cells. Put plainly: Ratio of γ-H2AX to total H2AX in HT29 cells treated 1 hour in vitro. Type of experiment: cell-based, human. Here is the method: (§1) Pierce REACTI-BIND plates (96-well) (Thermo Scientific) were coated with anti-7-H2AX antibody (Millipore) diluted to a concentration of 4 μg/mL in 0.1 M pH 9.6 carbonate buffer (Sigma-Aldrich, St. Louis, Mo.), 100 μL/well, for 2 hours at 37° C. The γ-H2AX synthetic peptide standard or a whole-cell extract was added to each well and incubated for antigen capture overnight at 4° C. Plates were incubated with 100 μL/well of 2 μg/mL anti-histone H2AX rabbit polyclonal antibody (Abcam) diluted in 2% bovine serum albumin (BSA)/phosphate buffered saline (PBS) supplemented with 1 μL/mL mouse serum for 2 hours (h) at 24° C. Subsequently, 100 μL/well HRP-conjugated affinity-purified goat anti-rabbit (KPL) was added at a final concentration of 1 μg/mL diluted in 2% BSA/PBS, supplemented with 1 μL/mL mouse serum, and incubated for 1 hour at 24° C. Finally, 100 μL/well of freshly prepared SUPERSIGNAL ELISA Pico chemiluminescent substrate (Thermo Scientific, Waltham, Mass.) was added to the plate and immediately read on a TECAN INFINITE M200 plate reader (Tecan Group Ltr., Maennedorf, Switzerland). […] The average γ-H2AX concentration for each cell extract was then determined using the standard curve (FIG. 1B).
Pierce REACTI-BIND plates (96-well) were coated with total anti-H2A core protein HIST1H2AC monoclonal antibody (Novus, St. Charles, Mo.) diluted to a concentration of 4 μg/mL in 0.1 M pH 9.6 carbonate buffer (Sigma-Aldrich), 100 μL/well, for 2 hours at 37° C. […] Finally, 100 μL/well of freshly prepared SUPERSIGNAL ELISA Pico chemiluminescent substrate (Thermo Scientific) was added to the plate and immediately read on a TECAN INFINITE M200 plate reader. […] The average total H2AX concentration for each cell extract was then determined using the standard curve (FIG. 2B).
HT29 cells were treated with the genotoxic agent camptothecin (CPT) or the non-genotoxic agent rhomidepsin for 1 hour at a concentration of 0 (vehicle) 0.001, 0.001, 0.01, 1 or 10 μM. […] DNA DSB, as measured by the ratio of γ-H2AX to total H2AX, was detected with CPT treatment as low as 1 nM. […]

The subject of experiment [1] is tumors of the human breast carcinoma cell line MX1. Put plainly: γ-H2AX and total H2AX immunoassays on tumor biopsies of drug-treated nude mice with MX1 tumors. The class given is in vivo. As to the method:
as §1, with “Subsequently, 100 μL/well HRP-conjugated affinity-purified goat anti-rabbit (KPL) was added at a final concentration of 1 μg/mL diluted in 2% BSA/PBS, supplemented with 1 μL/mL mouse serum, and incubated for 1 hour at 24° C.” left out
Pierce REACTI-BIND plates (96-well) were coated with total anti-H2A core protein HIST1H2AC monoclonal antibody (Novus, St. Charles, Mo.) diluted to a concentration of 4 μg/mL in 0.1 M pH 9.6 carbonate buffer (Sigma-Aldrich), 100 μL/well, for 2 hours at 37° C. […] The average total H2AX concentration for each cell extract was then determined using the standard curve (FIG. 2B). […]

Experiment [2] deals with γ-H2AX in HT29 or MCF7 cells. Put plainly: Microscope staining with labeled anti-γ-H2AX antibody (IFA) of cells treated as in Example 14. The class given is cell-based, human. Particulars: 10 nM, 100 nM, 1 μM and 10 μM CPT; intensity increased with concentration. The text has this:
The presence of γ-H2AX in the cells treated as described in Example 14 was confirmed by staining using a labeled anti-γ-H2AX antibody and observing the intensity of the staining through a microscope. […] The staining intensity increased as the concentration of CPT used to treat the cells increased.
The γ-H2AX in the cells treated as described in Example 14 was quantified by staining using a labeled anti-γ-H2AX antibody and measuring the intensity of the staining observed through a microscope (immunofluorescence microscope assay (IFA)). The quantity of γ-H2AX measured by staining intensity was compared to the ratio of γ-H2AX to total H2AX measured by the immunoassays (IA) of Examples 1 and 2. The results are shown in FIG. 18A (HT29) and FIG. 18B (MCF7).

The test system of experiment [3] is γ-H2AX in HCT116 cells. Put plainly: γ-H2AX immunoassay (γ-H2AX ELISA) in treated HCT116 cell cultures. The class given is cell-based, human. Here is the method:
Pierce REACTI-BIND plates (96-well) (Thermo Scientific) were coated with anti-7-H2AX antibody (Millipore) diluted to a concentration of 4 μg/mL in 0.1 M pH 9.6 carbonate buffer (Sigma-Aldrich, St. Louis, Mo.), 100 μL/well, for 2 hours at 37° C. The γ-H2AX synthetic peptide standard or a whole-cell extract was added to each well and incubated for antigen capture overnight at 4° C. Plates were incubated with 100 μL/well of 2 μg/mL anti-histone H2AX rabbit polyclonal antibody (Abcam) diluted in 2% bovine serum albumin (BSA)/phosphate buffered saline (PBS) supplemented with 1 μL/mL mouse serum for 2 hours (h) at 24° C. Subsequently, 100 μL/well HRP-conjugated affinity-purified goat anti-rabbit (KPL) was added at a final concentration of 1 μg/mL diluted in 2% BSA/PBS, supplemented with 1 μL/mL mouse serum, and incubated for 1 hour at 24° C. Finally, 100 μL/well of freshly prepared SUPERSIGNAL ELISA Pico chemiluminescent substrate (Thermo Scientific, Waltham, Mass.) was added to the plate and immediately read on a TECAN INFINITE M200 plate reader (Tecan Group Ltr., Maennedorf, Switzerland). A standard curve was generated by plotting the RLU (relative light unit) values that were obtained for a range of concentrations of the γ-H2AX standard peptide (FIG. 1A). The average γ-H2AX concentration for each cell extract was then determined using the standard curve (FIG. 1B).
(§2) Human […] cancer cell lines HCT 116 or MCF 7 (ATCC) were cultured with 10% fetal bovine serum at 37° C. in a 5% CO2 incubator. The cells were treated with the topoisomerase I inhibitor topotecan, the apoptosis-inducing biomolecule tumor necrosis factor (TNF)-related apoptosis-inducing ligand (TRAIL), or IR. The γ-H2AX immunoassay (γ-H2AX ELISA) was compared with γ-H2AX detection by both Western blot and immunofluorescence assay (IFA).
(§3) The ELISA detected changes in γ-H2AX in HCT116 cell cultures induced by a variety of treatments in vitro and was overall highly correlated to both IFA and Western blot following treatment with topotecan or TRAIL (Table 6).
A general note: An ELISA detects its analyte on a solid surface through an enzyme-linked reagent.

Experiment [4] relates to γ-H2AX in HCT116 cells. Put plainly: γ-H2AX detection by immunofluorescence assay (IFA) in treated HCT116 cell cultures. Type of experiment: cell-based, human. As to the method: as §2, §3
The test system of experiment [5] is γ-H2AX in HCT116 cells. Put plainly: γ-H2AX detection by Western blot in treated HCT116 cell cultures. The class given is cell-based, human. Here is the method: as §2, §3
(In general: A western blot detects proteins with antibodies after separation by electrophoresis.)

The next experiment relates to MCF7 cells. Put plainly: γ-H2AX and total H2AX immunoassays in MCF7 cells treated with SN38 and ATR inhibitors. The class given is cell-based, human. Particulars: SN38 0.25 μM plus ATRi 1 or 0.5 μM.

Description for A375 xenografts: Pierce REACTI-BIND plates (96-well) (Thermo Scientific) were coated with anti-7-H2AX antibody (Millipore) diluted to a concentration of 4 μg/mL in 0.1 M pH 9.6 carbonate buffer (Sigma-Aldrich, St. Louis, Mo.), 100 μL/well, for 2 hours at 37° C. The γ-H2AX synthetic peptide standard or a whole-cell extract was added to each well and incubated for antigen capture overnight at 4° C. Plates were incubated with 100 μL/well of 2 μg/mL anti-histone H2AX rabbit polyclonal antibody (Abcam) diluted in 2% bovine serum albumin (BSA)/phosphate buffered saline (PBS) supplemented with 1 μL/mL mouse serum for 2 hours (h) at 24° C. Subsequently, 100 μL/well HRP-conjugated affinity-purified goat anti-rabbit (KPL) was added at a final concentration of 1 μg/mL diluted in 2% BSA/PBS, supplemented with 1 μL/mL mouse serum, and incubated for 1 hour at 24° C. […] M200 plate reader (Tecan Group Ltr., Maennedorf, Switzerland). A standard curve was generated by plotting the RLU (relative light unit) values that were obtained for a range of concentrations of the γ-H2AX standard peptide (FIG. 1A). The average γ-H2AX concentration for each cell extract was then determined using the standard curve (FIG. 1B).
A375 xenograft mouse models were treated with vehicle (control), CPT-11 alone, a PARP inhibitor alone, a combination of CPT-11 and the PARP inhibitor (PARPi) administered simultaneously, or a combination of CPT-11 and the PARPi, wherein the PARPi is administered four hours before CPT-11 is administered. […] Cells from the treated mice were quantified for γ-H2AX and total H2AX using the immunoassays of Examples 1 and 2, respectively, and the ratio of γ-H2AX to total H2AX was determined.

In the case of `C[C@]1(c2nc3c(C(N)=O)cccc3[nH]2)CCCN1` [ABT-888], the “induction of γ-H2AX (DNA DSB) in combination with CPT-11” value (“induction of γ-H2AX (DNA DSB)” for short) in the experiment with A375 xenografts was “synergistic induction of γ-H2AX”.

Turning to `C/C=C1\NC(=O)[C@H]2CSSCC/C=C/[C@H](CC(=O)N[C@H](C(C)C)C(=O)N2)OC(=O)[C@H](C(C)C)NC1=O` [rhomidepsin], the “DNA DSB, as measured by the ratio of γ-H2AX to total H2AX” value in the experiment on HT29 cells (1 hour, even at a concentration as high as 10 μM) was “no DNA DSB”.

On to `NC(=O)c1cccc2cn(-c3ccc([C@@H]4CCCNC4)cc3)nc12` [MK-4827], for which, in the experiment with A375 xenografts, the “induction of γ-H2AX (DNA DSB)” value is on record as “synergistic induction of γ-H2AX”.

Turning to `O=C(c1cc(Cc2n[nH]c(=O)c3ccccc23)ccc1F)N1CCN(C(=O)C2CC2)CC1` [AZD2281], the “γ-H2AX induction (ratio of γH2AX to total H2AX)” value in experiment [1] (50 or 6.25 units AZD2281 IP in combination with irinotecan 7.5 units IV, particularly at 4 hours after administration) is “induced substantially more γ-H2AX”. The “induction of γ-H2AX (DNA DSB)” value in the experiment on A375 xenografts is recorded as “synergistic induction of γ-H2AX”.

Regarding `CC[C@@]1(O)C(=O)OCc2c1cc1n(c2=O)Cc2cc3ccccc3nc2-1` [CPT, camptothecin], in experiment [2], the “staining with labeled anti-γ-H2AX antibody” value is reported as “Staining was observed”. For the same molecule, the “concentration at which DNA DSB, as measured by the ratio of γ-H2AX to total H2AX, was detected” value with HT29 cells (1 hour treatment) was no less than 1 nM. Also, the “concentration giving a detectable signal of DNA DSB (ratio of γ-H2AX to total H2AX)” value in the experiment with HT29 cells (1 hour, with as few as 160 cells per assay) is no less than 0.01 µM.

`CC[C@@]1(O)C(=O)OCc2c1cc1n(c2=O)Cc2cc3c(CN(C)C)c(O)ccc3nc2-1` [Topotecan, topotecan]: the “γ-H2AX ELISA” value with γ-H2AX in HCT116 cells [3] (Topotecan 1 μM, 0 hr) is recorded as 124 pM; with γ-H2AX in HCT116 cells [3] (Topotecan 1 μM, 1 hr) it was 2536 pM; in the experiment on γ-H2AX in HCT116 cells [3] (Topotecan 1 μM, 3 hr), 3134 pM; with γ-H2AX in HCT116 cells [3] (Topotecan 1 μM, 6 hr) it was 4793 pM. The “γ-H2AX IFA” value with γ-H2AX in HCT116 cells [4] (Topotecan 1 μM, 0 hr) stood at 0.7 RLU; in the experiment on γ-H2AX in HCT116 cells [4] (Topotecan 1 μM, 1 hr), 23.0 RLU; in the experiment with γ-H2AX in HCT116 cells [4] (Topotecan 1 μM, 3 hr), 43.9 RLU; in the experiment with γ-H2AX in HCT116 cells [4] (Topotecan 1 μM, 6 hr), 51.2 RLU. The “γ-H2AX Western Blot” value with γ-H2AX in HCT116 cells [5] (Topotecan 1 μM, 0 hr) came out at 4.7 RLU; with γ-H2AX in HCT116 cells [5] (Topotecan 1 μM, 1 hr), 8.1 RLU; in the experiment with γ-H2AX in HCT116 cells [5] (Topotecan 1 μM, 3 hr), 6.9 RLU; in the experiment with γ-H2AX in HCT116 cells [5] (Topotecan 1 μM, 6 hr) it was 14.3 RLU.

In the case of `C[C@@H]1COCCN1c1cc(C2([S@](C)(=N)=O)CC2)nc(-c2cc[nH]c3nccc2-3)n1` [AZD-6738], the “synergy for γ-H2AX induction in combination with the Top1 inhibitor SN38” value (“synergy … with the Top1 inhibitor SN38” below) in the experiment on MCF7 cells is recorded as “highest synergy”.

As to `CNCc1ccc(-c2cc(-c3nc(-c4ccc(S(=O)(=O)C(C)C)cc4)cnc3N)on2)cc1` [VE-822], the “synergy … with the Top1 inhibitor SN38” value in the experiment on MCF7 cells is listed as “highest synergy”.

Regarding `CCc1c2c(nc3ccc(OC(=O)N4CCC(N5CCCCC5)CC4)cc13)-c1cc3c(c(=O)n1C2)COC(=O)[C@]3(O)CC` [irinotecan], the “γ-H2AX induction (ratio of γH2AX to total H2AX)” value in experiment [1] (irinotecan 7.5 units IV alone, MX1 tumor biopsies, nude mice) is “induced γ-H2AX modestly”.

`Nc1nc(N)c(N=O)c(OCC2CCCCC2)n1` [NU-6027]: the “synergy … with the Top1 inhibitor SN38” value in the experiment with MCF7 cells is reported as “none”.

B1: TRAIL: apoptosis-inducing biomolecule tumor necrosis factor (TNF)-related apoptosis-inducing ligand (protein, UniProt P50591 1-281, looked up)
Tumor necrosis factor ligand …: MAMMEVQGGPSLGQTCVLIVIFTVLLQSLCVAVTYVYFTNELKQMQDKYSKSGIACFLKEDDSYWDPNDEESMNSPCWQVKWQLRQLVRKMILRTSEETISTVQEKQQNISPLVRERGPQRVAAHITGTRGRSNTLSSPNSKNEKALGRKINSWESSRSGHSFLSNLHLRNGELVIHEKGFYYIYSQTYFRFQEEIKENTKNDKQMVQYIYKYTSYPDPILLMKSARNSCWSKDAEYGLYSIYQGGIFELKENDRIFVSVTNEHLIDMDHEASFFGAFLVG
Regarding B1, the “γ-H2AX ELISA” value is given as 134 pM in the experiment with γ-H2AX in HCT116 cells [3] (TRAIL 0.1 μg/mL, 0 hr); 2764 pM with γ-H2AX in HCT116 cells [3] (TRAIL 0.1 μg/mL, 1 hr); 9276 pM in the experiment on γ-H2AX in HCT116 cells [3] (TRAIL 0.1 μg/mL, 3 hr); 7703 pM in the experiment on γ-H2AX in HCT116 cells [3] (TRAIL 0.1 μg/mL, 6 hr). The “γ-H2AX IFA” value came out at 2.0 RLU in the experiment with γ-H2AX in HCT116 cells [4] (TRAIL 0.1 μg/mL, 0 hr); 34.5 RLU with γ-H2AX in HCT116 cells [4] (TRAIL 0.1 μg/mL, 1 hr); 72.2 RLU in the experiment on γ-H2AX in HCT116 cells [4] (TRAIL 0.1 μg/mL, 3 hr); 49.6 RLU in the experiment with γ-H2AX in HCT116 cells [4] (TRAIL 0.1 μg/mL, 6 hr). For the same molecule, the “γ-H2AX Western Blot” value is reported as 2.7 RLU in the experiment with γ-H2AX in HCT116 cells [5] (TRAIL 0.1 μg/mL, 0 hr); 17.3 RLU in the experiment with γ-H2AX in HCT116 cells [5] (TRAIL 0.1 μg/mL, 1 hr); 45.8 RLU with γ-H2AX in HCT116 cells [5] (TRAIL 0.1 μg/mL, 3 hr); 43.5 RLU with γ-H2AX in HCT116 cells [5] (TRAIL 0.1 μg/mL, 6 hr).
